Measurements reported in ChEMBL document CHEMBL3745645, “Synthesis, in vitro antitumor activity, dihydrofolate reductase inhibition, DNA intercalation and structure-activity relationship studies of 1,3,5-triazine analogues” (Bioorg Med Chem Lett, 2016).
Active and inactive are the calls of the source. The calls are words filed in the database; no cut-off is given here.

Columns and labels:
MDA-MB-468 = assay: Cytotoxicity against human MDA-MB-468 cells at 10 uM after 48 hrs by SRB assay; assay type: functional; conditions: MDA-MB-468, 48 h, read-out: GI
[1] = Cytotoxicity against human SKOV3 cells at 10 uM after 48 hrs by SRB assay; assay type: functional; conditions: SK-OV-3, 48 h, read-out: GI
[2] = Cytotoxicity against human OVCAR8 cells at 10 uM after 48 hrs by SRB assay; assay type: functional; conditions: OVCAR-8, 48 h, read-out: GI
[3] = Cytotoxicity against human NCI-ADR-RES cells at 10 uM after 48 hrs by SRB assay; assay type: functional; conditions: read-out: GI
[4] = Cytotoxicity against human RXF393 cells at 10 uM after 48 hrs by SRB assay; assay type: functional; conditions: RXF 393, 48 h, read-out: GI
CCRF-CEM = assay: Cytotoxicity against human CCRF-CEM cells at 10 uM after 48 hrs by SRB assay; assay type: functional; conditions: read-out: GI
[5] = Cytotoxicity against human TK10 cells at 10 uM after 48 hrs by SRB assay; assay type: functional; conditions: TK-10, 48 h, read-out: GI
K562 [6] = assay: Cytotoxicity against human K562 cells at 10 uM after 48 hrs by SRB assay; assay type: functional; conditions: K562, 48 h, read-out: GI
Dihydrofolate reductase = molecular target: T1, Dihydrofolate reductase (Homo sapiens, UniProt P00374); assay: Inhibition of human recombinant DHFR expressed in Escherichia coli by spectrophotometric analysis
T1 sequence (P00374 whole entry): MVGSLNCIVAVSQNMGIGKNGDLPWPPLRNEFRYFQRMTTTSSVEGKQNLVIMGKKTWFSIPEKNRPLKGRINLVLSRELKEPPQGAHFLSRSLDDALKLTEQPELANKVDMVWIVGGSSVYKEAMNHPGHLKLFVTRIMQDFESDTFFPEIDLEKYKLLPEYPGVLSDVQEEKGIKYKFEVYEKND

SK-MEL-2 = assay: Cytotoxicity against human SK-MEL-2 cells at 10 uM after 48 hrs by SRB assay; assay type: functional; conditions: SK-MEL-2, 48 h, read-out: GI
Calf thymus DNA = assay: Binding affinity to calf thymus DNA assessed as melting temperature by spectrophotometric analysis (reference value: 60 degC); assay type: nucleic-acid assay; conditions: Bos taurus
[7] = Cytotoxicity against human HCT116 cells at 10 uM after 48 hrs by SRB assay; assay type: functional; conditions: HCT-116, 48 h, read-out: GI
K562 [8] = assay: Cytotoxicity against human K562 cells after 48 hrs by SRB assay; assay type: functional; conditions: K562, 48 h
[9] = (§1) Cytotoxicity against human UACC257 cells at 10 uM after 48 hrs by SRB assay; assay type: functional; conditions: UACC-257, 48 h, read-out: GI
[10] = Cytotoxicity against human SF268 cells at 10 uM after 48 hrs by SRB assay; assay type: functional; conditions: SF-268, 48 h, read-out: GI
[11] = Cytotoxicity against human DU145 cells after 48 hrs by SRB assay; assay type: functional; conditions: DU-145, 48 h, read-out: LC50 (the source's name)
NCI-H460 = assay: Cytotoxicity against human NCI-H460 cells at 10 uM after 48 hrs by SRB assay; assay type: functional; conditions: NCI-H460, 48 h, read-out: GI
HT-29 = assay: Cytotoxicity against human HT-29 cells at 10 uM after 48 hrs by SRB assay; assay type: functional; conditions: HT-29, 48 h, read-out: GI
MDA-MB-435 = assay: Cytotoxicity against human MDA-MB-435 cells at 10 uM after 48 hrs by SRB assay; assay type: functional; conditions: MDA-MB-435, 48 h, read-out: GI
[12] = Cytotoxicity against human SF295 cells at 10 uM after 48 hrs by SRB assay; assay type: functional; conditions: SF-295, 48 h, read-out: GI
[13] = Cytotoxicity against human HCT15 cells at 10 uM after 48 hrs by SRB assay; assay type: functional; conditions: HCT-15, 48 h, read-out: GI
786-0 [14] = assay: Cytotoxicity against human 786-0 cells after 48 hrs by SRB assay; assay type: functional; conditions: 786-0, 48 h, pooled result: one value given for 8 cell lines, strains, targets or settings
[15] = (§2) Cytotoxicity against human HCC2998 cells at 10 uM after 48 hrs by SRB assay; assay type: functional; conditions: HCC 2998, 48 h, read-out: GI
786-0 [16] = assay: Cytotoxicity against human 786-0 cells at 10 uM after 48 hrs by SRB assay; assay type: functional; conditions: 786-0, 48 h, read-out: GI
[17] = Cytotoxicity against human PC3 cells at 10 uM after 48 hrs by SRB assay; assay type: functional; conditions: PC-3, 48 h, read-out: GI
[18] = (§3) Cytotoxicity against human OVCAR4 cells at 10 uM after 48 hrs by SRB assay; assay type: functional; conditions: OVCAR-4, 48 h, read-out: GI
[19] = Cytotoxicity against human UACC62 cells at 10 uM after 48 hrs by SRB assay; assay type: functional; conditions: UACC-62, 48 h, read-out: GI
RPMI-8226 = assay: (§4) Cytotoxicity against human RPMI8226 cells at 10 uM after 48 hrs by SRB assay; assay type: functional
[20] = Cytotoxicity against human Hs 578T cells at 10 uM after 48 hrs by SRB assay; assay type: functional; conditions: read-out: GI
[21] = Cytotoxicity against human COLO205 cells after 48 hrs by SRB assay; assay type: functional; conditions: COLO 205, 48 h, pooled result: one value given for 7 cell lines, strains, targets or settings
[22] = Cytotoxicity against human BT549 cells at 10 uM after 48 hrs by SRB assay; assay type: functional; conditions: BT-549, 48 h, read-out: GI
[23] = Cytotoxicity against human OVCAR3 cells at 10 uM after 48 hrs by SRB assay; assay type: functional; conditions: OVCAR-3, 48 h, read-out: GI
UACC-257 = assay: as §1; assay type: functional
NCI-H23 = assay: Cytotoxicity against human NCI-H23 cells at 10 uM after 48 hrs by SRB assay; assay type: functional; conditions: NCI-H23, 48 h, read-out: GI
HCC 2998 = assay: as §2; assay type: functional
OVCAR-4 = assay: as §3; assay type: functional
[24] = as §4; assay type: functional; conditions: RPMI-8226, 48 h, read-out: GI
NCI-H322M = assay: Cytotoxicity against human NCI-H322M cells at 10 uM after 48 hrs by SRB assay; assay type: functional; conditions: read-out: GI

Cc1nc2cc(Nc3nc(Nc4ccc(F)cc4)nc(-c4cccs4)n3)ccc2n1Cc1ccccc1
inhibition of growth at 10 µM (MDA-MB-468): 66.8% | inhibition of growth at 10 µM [1]: 4.89% | inhibition of growth at 10 µM [2]: 63% | inhibition of growth at 10 µM [3]: 42.7% | inhibition of growth at 10 µM [4]: 74.1% | inhibition of growth at 10 µM (CCRF-CEM): 72.8% | inhibition of growth at 10 µM [5]: 37.3% | inhibition of growth at 10 µM (K562 [6]): 56.9% | IC50 (Dihydrofolate reductase): 720 nM | inhibition of growth at 10 µM (SK-MEL-2): 27.1% | Tm (Calf thymus DNA): 68.5 °C | inhibition of growth at 10 µM [7]: 75.8% | LC50 (K562 [8]): > 100 µM | inhibition of growth at 10 µM [9]: 42.5% | inhibition of growth at 10 µM [10]: 36.3% | CC50 [11]: > 100 µM | inhibition of growth at 10 µM (NCI-H460): 60.4% | inhibition of growth at 10 µM (HT-29): 79.5% | inhibition of growth at 10 µM (MDA-MB-435): 56.2% | inhibition of growth at 10 µM [12]: 48.1% | inhibition of growth at 10 µM [13]: 69.7% | GI50 (786-0 [14]): 4.54 µM | LC50 (concentration killing 50% of cells) (786-0 [14]): > 100 µM | TGI (786-0 [14]): 43.5 µM | inhibition of growth at 10 µM [15]: 27.9% | inhibition of growth at 10 µM (786-0 [16]): 62.5% | inhibition of growth at 10 µM [17]: 70.6% | inhibition of growth at 10 µM [18]: 49% | inhibition of growth at 10 µM [19]: 38.5% | growth inhibition (GI) (RPMI-8226): Active | inhibition of growth at 10 µM [20]: 49.7% | GI50 [21]: 3.23 µM | LC50 [21]: 25.3 µM | TGI [21]: 17 µM | inhibition of growth at 10 µM [22]: 30.5% | inhibition of growth at 10 µM [23]: 33.3%

Cc1nc2ccc(Nc3nc(Cl)nc(Nc4ccc(F)cc4)n3)cc2n1Cc1ccccc1
inhibition of growth at 10 µM (MDA-MB-468): 30.3% | inhibition of growth at 10 µM [1]: 2.61% | inhibition of growth at 10 µM [2]: 57.7% | inhibition of growth at 10 µM [4]: 15.4% | inhibition of growth at 10 µM (CCRF-CEM): 77.1% | inhibition of growth at 10 µM [5]: 7.64% | inhibition of growth at 10 µM (K562 [6]): 63.1% | IC50 (Dihydrofolate reductase): 310 nM | Tm (Calf thymus DNA): 57 °C | inhibition of growth at 10 µM [7]: 55.8% | LC50 (K562 [8]): > 100 µM | growth inhibition (GI) (UACC-257): inactive | inhibition of growth at 10 µM [10]: 24.6% | inhibition of growth at 10 µM (NCI-H23): 11.8% | CC50 [11]: 52.5 µM | inhibition of growth at 10 µM (NCI-H460): 20.1% | inhibition of growth at 10 µM (HT-29): 15.8% | inhibition of growth at 10 µM (MDA-MB-435): 11.2% | inhibition of growth at 10 µM [12]: 21.8% | inhibition of growth at 10 µM [13]: 44.2% | GI50 (786-0 [14]): 7.49 µM | LC50 (concentration killing 50% of cells) (786-0 [14]): 55.5 µM | TGI (786-0 [14]): 30 µM | growth inhibition (GI) (HCC 2998): inactive | inhibition of growth at 10 µM (786-0 [16]): 20.4% | inhibition of growth at 10 µM [17]: 19.2% | growth inhibition (GI) (OVCAR-4): inactive | inhibition of growth at 10 µM [19]: 48.6% | inhibition of growth at 10 µM [24]: 87.5% | inhibition of growth at 10 µM [20]: 11.1% | GI50 [21]: 4.91 µM | LC50 [21]: 54.6 µM | TGI [21]: 18.1 µM | inhibition of growth at 10 µM (NCI-H322M): 11.9% | inhibition of growth at 10 µM [22]: 39.8% | inhibition of growth at 10 µM [23]: 5.09%
